This is an account of results in ChEMBL document CHEMBL1201862, “PubChem BioAssay data set” (2004).

Activity calls are given as the source filed them.

For assay [1], the system named is HeLa. Briefly: HeLa cell cytotoxicity, dose response, cytotoxicity control for MITF activator project, CellTiter-Glo luminescence, cherry-pick samples (AID 540259). The assay is classed as functional, cell-based. As to conditions: Homo sapiens.
Assay [2] has as its system Vero. Briefly: Vero cell cytotoxicity, cytotoxicity control for flavivirus capping enzyme inhibitors (AID 588742). The settings on record: Chlorocebus sabaeus. The assay is classed as functional.
Assay [3] relates to H9c2. Briefly: cells. In kind it is functional, cell-based. As to conditions: Rattus norvegicus, H9c2, Myocardium.
The target of assay [4] is T1, Heat shock factor protein 1 (Mus musculus, UniProt P38532).
T1 sequence (P38532 whole entry): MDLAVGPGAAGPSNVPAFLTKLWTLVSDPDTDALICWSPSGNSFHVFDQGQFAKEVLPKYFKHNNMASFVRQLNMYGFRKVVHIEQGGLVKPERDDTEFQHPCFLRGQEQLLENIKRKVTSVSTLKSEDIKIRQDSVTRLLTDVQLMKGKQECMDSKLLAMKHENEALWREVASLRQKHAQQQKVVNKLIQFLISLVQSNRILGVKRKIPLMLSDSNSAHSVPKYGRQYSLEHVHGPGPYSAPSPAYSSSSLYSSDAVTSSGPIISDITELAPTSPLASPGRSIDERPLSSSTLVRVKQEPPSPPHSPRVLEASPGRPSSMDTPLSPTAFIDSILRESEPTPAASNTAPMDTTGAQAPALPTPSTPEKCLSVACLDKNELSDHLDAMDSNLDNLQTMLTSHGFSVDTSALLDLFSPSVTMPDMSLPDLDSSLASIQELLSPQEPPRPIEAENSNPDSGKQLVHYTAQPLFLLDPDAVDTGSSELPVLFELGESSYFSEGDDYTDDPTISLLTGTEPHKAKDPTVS
The experiment in a line: HSF1 potentiators in luciferase reporter cells, confirmation, cell-based, NIH3T3, luminescence, dose retest (AID 435004).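 Further: stress induced by proteasome inhibitor MG132 added 30 min after compound; luciferase reporter driven by HSF1 response element in NIH3T3 cells; actives raise luminescence as potentiators of the MG132 stress response.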 In kind it is functional.

Assay [5] addresses T2, Mitochondrial peptide methionine sulfoxide reductase (Bos taurus, UniProt P54149).
T2 sequence (P54149 whole entry): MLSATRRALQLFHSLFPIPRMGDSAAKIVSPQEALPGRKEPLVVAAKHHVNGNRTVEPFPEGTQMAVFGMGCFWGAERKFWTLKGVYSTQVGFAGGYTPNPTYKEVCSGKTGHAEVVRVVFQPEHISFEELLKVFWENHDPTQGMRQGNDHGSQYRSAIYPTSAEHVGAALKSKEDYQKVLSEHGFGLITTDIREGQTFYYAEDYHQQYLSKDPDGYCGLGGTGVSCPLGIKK
In kind it is functional.

Assay [6] in a line: Luminescence-based cell-based high throughput dose response assay to identify activators of the DAF-12 from the parasite S. stercoralis (ssDAF-12). The assay is classed as functional.
The target in assay [7] is Glucose-6-phosphate 1-dehydrogenase (Homo sapiens, UniProt P11413). Briefly: human G6PD enzyme inhibitors, dose response, selectivity assay for P. falciparum G6PD inhibitor project, biochemical, fluorescence (AID 504792). The assay is classed as functional.
Sequence of Glucose-6-phosphate 1-dehydrogenase (P11413 whole entry): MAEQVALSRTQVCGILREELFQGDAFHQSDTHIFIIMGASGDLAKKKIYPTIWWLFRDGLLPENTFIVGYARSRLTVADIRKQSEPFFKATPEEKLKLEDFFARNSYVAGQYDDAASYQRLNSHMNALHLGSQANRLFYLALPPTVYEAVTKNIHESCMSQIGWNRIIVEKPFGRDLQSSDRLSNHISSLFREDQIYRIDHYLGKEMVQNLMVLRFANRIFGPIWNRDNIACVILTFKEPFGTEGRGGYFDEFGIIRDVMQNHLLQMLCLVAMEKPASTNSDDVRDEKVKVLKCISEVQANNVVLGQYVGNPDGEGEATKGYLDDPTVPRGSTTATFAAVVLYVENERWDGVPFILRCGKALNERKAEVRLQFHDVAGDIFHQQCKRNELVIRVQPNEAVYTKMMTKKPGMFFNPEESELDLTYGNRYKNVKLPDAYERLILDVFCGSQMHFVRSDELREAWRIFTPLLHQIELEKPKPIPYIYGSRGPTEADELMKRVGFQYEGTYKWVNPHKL
Assay [8] addresses Prothrombin (Bos taurus, UniProt P00735). The experiment in a line: thrombin inhibition, dose response, biochemical, fluorescence polarization, uHTS hits (AID 602369). In kind it is functional.
The target of assay [9] is 26S proteasome non-ATPase regulatory subunit 14 (Homo sapiens, UniProt O00487). The experiment in a line: inhibition of proteasome subunit RPN11 – biochemical, fluorescence polarization, uHTS hits, confirmation (AID 602368). The assay is classed as functional.
Sequence of 26S proteasome non-ATPase regulatory subunit 14 (O00487 whole entry): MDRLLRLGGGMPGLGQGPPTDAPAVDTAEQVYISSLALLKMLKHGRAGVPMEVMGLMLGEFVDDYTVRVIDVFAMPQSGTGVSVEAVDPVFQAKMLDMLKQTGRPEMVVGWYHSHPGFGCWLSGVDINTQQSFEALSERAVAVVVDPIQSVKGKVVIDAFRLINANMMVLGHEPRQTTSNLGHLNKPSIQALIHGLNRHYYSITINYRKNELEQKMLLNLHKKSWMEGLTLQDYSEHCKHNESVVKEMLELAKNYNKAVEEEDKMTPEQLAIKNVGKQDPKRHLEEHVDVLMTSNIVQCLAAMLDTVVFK
Assay [10] concerns the target Keap1/Nrf2 (Homo sapiens, UniProt Q14145). The experiment in a line: Keap1-Nrf2 protein-protein interaction inhibitors, dose response, biochemical, fluorescence polarization, cherry-picked samples (AID 588683).
The target in assay [11] is T3, Histone-lysine N-methyltransferase NSD2 (Homo sapiens, UniProt O96028).
T3 sequence (O96028 whole entry): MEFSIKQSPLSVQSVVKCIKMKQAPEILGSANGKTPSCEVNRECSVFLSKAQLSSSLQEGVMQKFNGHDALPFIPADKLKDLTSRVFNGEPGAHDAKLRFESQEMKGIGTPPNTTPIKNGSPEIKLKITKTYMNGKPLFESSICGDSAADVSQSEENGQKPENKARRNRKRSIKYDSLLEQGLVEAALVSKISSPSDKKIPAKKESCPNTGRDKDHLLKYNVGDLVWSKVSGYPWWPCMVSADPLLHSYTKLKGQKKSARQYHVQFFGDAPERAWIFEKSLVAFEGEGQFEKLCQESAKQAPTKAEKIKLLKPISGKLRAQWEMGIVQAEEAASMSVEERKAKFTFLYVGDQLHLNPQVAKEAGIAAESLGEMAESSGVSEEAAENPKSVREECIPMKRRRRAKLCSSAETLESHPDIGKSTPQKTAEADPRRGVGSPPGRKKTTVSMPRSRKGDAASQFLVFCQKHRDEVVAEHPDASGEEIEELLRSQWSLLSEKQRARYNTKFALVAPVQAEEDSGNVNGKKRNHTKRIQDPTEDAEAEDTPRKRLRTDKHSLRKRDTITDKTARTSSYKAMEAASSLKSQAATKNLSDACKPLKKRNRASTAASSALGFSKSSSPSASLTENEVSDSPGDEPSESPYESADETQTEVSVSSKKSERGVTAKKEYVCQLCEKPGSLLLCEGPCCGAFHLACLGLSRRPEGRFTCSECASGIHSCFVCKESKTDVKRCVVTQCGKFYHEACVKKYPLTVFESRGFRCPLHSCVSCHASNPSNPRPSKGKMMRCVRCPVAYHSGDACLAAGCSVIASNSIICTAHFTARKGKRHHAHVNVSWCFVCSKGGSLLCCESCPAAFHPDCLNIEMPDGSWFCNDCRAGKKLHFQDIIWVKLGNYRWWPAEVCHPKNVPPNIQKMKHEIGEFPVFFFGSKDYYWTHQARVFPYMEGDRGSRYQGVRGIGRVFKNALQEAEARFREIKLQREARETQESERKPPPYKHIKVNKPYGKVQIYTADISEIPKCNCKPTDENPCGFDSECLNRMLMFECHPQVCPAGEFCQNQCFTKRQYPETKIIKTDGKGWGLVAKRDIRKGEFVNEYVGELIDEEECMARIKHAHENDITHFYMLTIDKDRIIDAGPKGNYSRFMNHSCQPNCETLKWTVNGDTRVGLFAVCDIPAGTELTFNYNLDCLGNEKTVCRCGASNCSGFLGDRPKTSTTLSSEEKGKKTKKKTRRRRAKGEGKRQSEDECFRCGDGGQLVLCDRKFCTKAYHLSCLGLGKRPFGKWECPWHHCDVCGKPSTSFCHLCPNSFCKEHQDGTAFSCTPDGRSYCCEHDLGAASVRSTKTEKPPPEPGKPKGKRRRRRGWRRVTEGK
The assay is classed as biochemical.

Assay [12] has as its target 72 kDa type IV collagenase (Homo sapiens, UniProt P08253). Briefly: Dose Response validation of uHTS RPN11 inhibitor hits using a MMP-2 Fluorescence assay. In kind it is functional.
A short description of assay [13]: Luminescence Cell-Based Dose Confirmation HTS to Identify Inhibitors of Platelet Dense Granule Release. [Related pubchem assays: 1663 (Primary HTS), 1678 (Summary of Project)]. The assay is classed as functional.
Assay [14] deals with Luciferin 4-monooxygenase (Photinus pyralis, UniProt P08659). Briefly: firefly luciferase enzyme inhibitors, dose response, biochemical, luminescence (AID 1891).
Sequence of Luciferin 4-monooxygenase (P08659 whole entry): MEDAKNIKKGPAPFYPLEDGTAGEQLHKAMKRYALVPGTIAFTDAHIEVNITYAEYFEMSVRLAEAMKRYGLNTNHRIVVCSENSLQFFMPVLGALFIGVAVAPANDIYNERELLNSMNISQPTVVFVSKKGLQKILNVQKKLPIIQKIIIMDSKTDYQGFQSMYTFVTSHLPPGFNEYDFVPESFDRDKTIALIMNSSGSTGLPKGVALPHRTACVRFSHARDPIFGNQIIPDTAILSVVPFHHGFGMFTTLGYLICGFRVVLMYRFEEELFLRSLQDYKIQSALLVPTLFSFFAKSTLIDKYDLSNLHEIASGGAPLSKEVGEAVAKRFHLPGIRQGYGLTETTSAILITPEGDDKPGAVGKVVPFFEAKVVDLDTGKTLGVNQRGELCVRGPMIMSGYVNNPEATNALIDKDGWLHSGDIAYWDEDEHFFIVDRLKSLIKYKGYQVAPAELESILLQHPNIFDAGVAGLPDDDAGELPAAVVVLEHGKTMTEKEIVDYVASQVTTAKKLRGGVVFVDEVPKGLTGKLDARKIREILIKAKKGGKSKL
Assay [15] concerns the target Nonstructural protein 1 (Influenza A virus, UniProt Q194T2). In kind it is functional, Influenza A virus (A/California/07/2009(H1N1)).
Assay [16] deals with Genome polyprotein (dengue virus type 2, UniProt P29990). The experiment in a line: Dengue-2 NS5 methyltransferase inhibitors, primary screen, biochemical, confirmation dose response (AID 588689). In kind it is functional.
Sequence of Genome polyprotein (P29990 2492-3391 limits assumed): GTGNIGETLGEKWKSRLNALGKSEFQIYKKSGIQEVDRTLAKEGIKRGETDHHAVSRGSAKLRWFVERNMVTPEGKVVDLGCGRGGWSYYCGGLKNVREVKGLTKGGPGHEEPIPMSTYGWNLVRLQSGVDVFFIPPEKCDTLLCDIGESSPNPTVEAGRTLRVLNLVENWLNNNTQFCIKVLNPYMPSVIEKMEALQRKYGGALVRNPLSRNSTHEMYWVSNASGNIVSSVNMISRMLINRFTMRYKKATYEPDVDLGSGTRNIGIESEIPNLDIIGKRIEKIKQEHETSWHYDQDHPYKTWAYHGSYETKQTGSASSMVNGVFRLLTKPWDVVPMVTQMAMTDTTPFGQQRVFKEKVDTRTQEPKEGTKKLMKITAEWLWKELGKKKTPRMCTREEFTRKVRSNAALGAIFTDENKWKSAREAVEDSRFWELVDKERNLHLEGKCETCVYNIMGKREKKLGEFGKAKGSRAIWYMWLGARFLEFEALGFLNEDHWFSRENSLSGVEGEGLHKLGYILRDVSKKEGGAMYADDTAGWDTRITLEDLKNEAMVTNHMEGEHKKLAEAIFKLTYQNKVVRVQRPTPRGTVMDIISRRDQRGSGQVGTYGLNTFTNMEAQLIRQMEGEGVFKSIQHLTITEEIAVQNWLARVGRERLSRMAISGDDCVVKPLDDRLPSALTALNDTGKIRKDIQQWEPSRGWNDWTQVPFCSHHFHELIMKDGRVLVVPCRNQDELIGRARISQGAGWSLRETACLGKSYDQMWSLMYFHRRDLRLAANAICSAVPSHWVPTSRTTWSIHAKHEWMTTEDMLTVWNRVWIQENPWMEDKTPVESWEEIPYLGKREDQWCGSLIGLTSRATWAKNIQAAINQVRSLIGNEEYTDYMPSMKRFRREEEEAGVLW
The target of assay [17] is T4, Hexokinase HKDC1 (Homo sapiens, UniProt Q2TB90).
T4 sequence (Q2TB90 whole entry): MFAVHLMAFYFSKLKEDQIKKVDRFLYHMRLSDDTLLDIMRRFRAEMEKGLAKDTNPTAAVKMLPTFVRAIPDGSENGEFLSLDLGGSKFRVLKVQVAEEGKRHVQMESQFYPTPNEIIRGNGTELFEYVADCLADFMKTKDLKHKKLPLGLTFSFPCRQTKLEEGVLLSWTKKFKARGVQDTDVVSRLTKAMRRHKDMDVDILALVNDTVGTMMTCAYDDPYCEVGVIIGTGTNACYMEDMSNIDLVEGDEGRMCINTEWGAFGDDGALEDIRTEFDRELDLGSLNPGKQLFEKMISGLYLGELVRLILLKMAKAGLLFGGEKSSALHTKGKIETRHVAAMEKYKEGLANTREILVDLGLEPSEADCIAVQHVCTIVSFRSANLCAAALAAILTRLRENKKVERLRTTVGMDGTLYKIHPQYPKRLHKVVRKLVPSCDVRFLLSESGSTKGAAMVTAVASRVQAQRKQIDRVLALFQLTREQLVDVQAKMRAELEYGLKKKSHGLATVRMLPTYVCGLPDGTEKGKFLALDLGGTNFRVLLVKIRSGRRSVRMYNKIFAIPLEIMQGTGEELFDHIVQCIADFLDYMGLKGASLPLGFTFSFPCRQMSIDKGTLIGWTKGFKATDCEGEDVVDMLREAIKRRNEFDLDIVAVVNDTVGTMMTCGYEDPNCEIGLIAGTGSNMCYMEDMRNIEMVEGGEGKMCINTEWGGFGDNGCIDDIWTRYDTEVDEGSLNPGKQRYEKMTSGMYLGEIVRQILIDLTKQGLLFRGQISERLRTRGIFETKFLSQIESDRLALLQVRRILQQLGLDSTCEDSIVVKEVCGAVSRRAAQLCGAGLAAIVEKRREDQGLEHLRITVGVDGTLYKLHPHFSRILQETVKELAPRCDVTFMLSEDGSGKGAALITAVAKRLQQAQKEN
The experiment in a line: HKDC1 hexokinase inhibitors, dose response, biochemical, W721R variant (AID 504729). The assay is classed as functional.

Assay [18] has as its target T5, Tyrosine-protein phosphatase non-receptor type 7 (Homo sapiens, UniProt P35236).
T5 sequence (P35236 whole entry): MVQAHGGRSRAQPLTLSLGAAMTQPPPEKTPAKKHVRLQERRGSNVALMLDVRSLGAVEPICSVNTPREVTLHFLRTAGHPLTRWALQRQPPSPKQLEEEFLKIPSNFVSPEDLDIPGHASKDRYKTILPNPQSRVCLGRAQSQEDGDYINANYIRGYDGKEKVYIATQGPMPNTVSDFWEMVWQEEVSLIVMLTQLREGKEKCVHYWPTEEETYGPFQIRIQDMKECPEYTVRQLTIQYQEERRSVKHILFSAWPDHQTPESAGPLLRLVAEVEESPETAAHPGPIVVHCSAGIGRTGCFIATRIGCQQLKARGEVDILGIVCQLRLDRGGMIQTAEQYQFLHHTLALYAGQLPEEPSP
The experiment in a line: redox-dependent HePTP inhibition, mechanism study, biochemical, fluorescence (AID 2068). In kind it is functional.

In assay [19] the target is T6, Dual specificity protein phosphatase 6 (Rattus norvegicus, UniProt Q64346).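 Further: confirmatory in vitro dose-response testing of MKP-3 inhibition; recombinant His-tagged MKP-3 made in E. coli BL21 with OMFP substrate.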
T6 sequence (Q64346 whole entry): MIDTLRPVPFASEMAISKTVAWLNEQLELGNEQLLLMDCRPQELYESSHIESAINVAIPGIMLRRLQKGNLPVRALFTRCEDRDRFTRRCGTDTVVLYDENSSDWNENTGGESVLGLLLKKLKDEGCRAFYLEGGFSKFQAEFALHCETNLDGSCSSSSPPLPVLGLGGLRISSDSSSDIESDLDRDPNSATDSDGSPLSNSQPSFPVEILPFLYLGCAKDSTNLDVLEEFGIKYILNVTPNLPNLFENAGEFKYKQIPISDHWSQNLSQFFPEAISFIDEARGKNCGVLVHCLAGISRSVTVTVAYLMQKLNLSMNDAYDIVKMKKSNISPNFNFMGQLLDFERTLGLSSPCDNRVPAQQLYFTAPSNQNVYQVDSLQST
In kind it is functional.

Assay [20] addresses T7, Dual specificity protein phosphatase 3 (Homo sapiens, UniProt P51452). Briefly: SAR VHR1 absorbance Assay for In Vitro dose response studies. [Related pubchem assays (depositor defined):AID1654, AID1661, AID1878, AID1992, AID2004].
For assay [21], the target named is T7, Dual specificity protein phosphatase 3. The experiment in a line: SAR VHR1 Fluorescent Assay for In Vitro dose response studies. [Related pubchem assays (depositor defined):AID1654, AID1661, AID1878, AID1992, AID2004, AID2070, AID2085]. The assay is classed as functional.

Sequence of Keap1/Nrf2 (Q16236 whole entry): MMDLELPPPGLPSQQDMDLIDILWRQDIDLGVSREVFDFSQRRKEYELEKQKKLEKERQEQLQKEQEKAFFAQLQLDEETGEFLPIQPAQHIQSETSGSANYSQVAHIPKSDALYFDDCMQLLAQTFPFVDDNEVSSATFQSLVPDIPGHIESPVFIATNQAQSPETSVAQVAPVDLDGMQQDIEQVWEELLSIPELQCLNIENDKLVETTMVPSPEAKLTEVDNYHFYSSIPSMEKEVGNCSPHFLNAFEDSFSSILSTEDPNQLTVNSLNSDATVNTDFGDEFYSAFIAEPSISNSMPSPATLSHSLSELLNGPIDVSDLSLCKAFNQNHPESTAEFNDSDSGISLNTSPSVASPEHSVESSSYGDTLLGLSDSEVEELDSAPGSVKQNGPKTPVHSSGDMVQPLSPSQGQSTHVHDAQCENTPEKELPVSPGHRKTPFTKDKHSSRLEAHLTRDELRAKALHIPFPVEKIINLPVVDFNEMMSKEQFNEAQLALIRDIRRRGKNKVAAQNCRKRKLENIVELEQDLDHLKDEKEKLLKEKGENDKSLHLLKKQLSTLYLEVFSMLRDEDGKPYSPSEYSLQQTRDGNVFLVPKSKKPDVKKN
Sequence of Keap1/Nrf2 (Q14145 whole entry): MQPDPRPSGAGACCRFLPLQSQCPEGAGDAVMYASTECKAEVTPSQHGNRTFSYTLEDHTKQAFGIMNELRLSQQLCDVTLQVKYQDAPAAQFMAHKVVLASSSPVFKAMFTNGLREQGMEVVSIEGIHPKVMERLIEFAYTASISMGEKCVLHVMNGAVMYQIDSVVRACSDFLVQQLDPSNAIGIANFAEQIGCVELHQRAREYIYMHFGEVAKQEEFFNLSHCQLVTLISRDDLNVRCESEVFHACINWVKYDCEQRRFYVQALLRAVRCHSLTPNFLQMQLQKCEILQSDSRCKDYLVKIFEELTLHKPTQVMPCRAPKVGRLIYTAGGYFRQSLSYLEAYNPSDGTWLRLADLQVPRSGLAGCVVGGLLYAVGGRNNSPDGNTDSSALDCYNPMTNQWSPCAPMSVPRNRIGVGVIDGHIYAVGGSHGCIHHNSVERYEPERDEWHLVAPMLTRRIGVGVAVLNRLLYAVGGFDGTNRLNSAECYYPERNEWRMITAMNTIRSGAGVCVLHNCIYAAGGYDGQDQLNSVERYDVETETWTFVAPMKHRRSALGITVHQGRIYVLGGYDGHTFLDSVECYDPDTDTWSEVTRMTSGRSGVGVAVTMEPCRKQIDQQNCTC
T7 sequence (P51452 whole entry): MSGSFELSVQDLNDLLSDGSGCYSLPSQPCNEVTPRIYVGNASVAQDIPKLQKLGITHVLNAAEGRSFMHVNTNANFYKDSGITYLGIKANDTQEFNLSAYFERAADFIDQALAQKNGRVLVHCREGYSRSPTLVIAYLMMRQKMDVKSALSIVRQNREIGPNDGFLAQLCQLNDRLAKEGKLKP
Sequence of Nonstructural protein 1 (Q194T2 whole entry): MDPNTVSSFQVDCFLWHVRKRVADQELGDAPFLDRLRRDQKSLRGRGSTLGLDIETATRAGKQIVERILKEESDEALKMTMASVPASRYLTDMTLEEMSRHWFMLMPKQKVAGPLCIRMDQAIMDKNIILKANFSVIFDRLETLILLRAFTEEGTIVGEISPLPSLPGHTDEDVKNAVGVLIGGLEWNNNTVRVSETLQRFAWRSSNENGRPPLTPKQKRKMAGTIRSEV
Sequence of 72 kDa type IV collagenase (P08253 whole entry): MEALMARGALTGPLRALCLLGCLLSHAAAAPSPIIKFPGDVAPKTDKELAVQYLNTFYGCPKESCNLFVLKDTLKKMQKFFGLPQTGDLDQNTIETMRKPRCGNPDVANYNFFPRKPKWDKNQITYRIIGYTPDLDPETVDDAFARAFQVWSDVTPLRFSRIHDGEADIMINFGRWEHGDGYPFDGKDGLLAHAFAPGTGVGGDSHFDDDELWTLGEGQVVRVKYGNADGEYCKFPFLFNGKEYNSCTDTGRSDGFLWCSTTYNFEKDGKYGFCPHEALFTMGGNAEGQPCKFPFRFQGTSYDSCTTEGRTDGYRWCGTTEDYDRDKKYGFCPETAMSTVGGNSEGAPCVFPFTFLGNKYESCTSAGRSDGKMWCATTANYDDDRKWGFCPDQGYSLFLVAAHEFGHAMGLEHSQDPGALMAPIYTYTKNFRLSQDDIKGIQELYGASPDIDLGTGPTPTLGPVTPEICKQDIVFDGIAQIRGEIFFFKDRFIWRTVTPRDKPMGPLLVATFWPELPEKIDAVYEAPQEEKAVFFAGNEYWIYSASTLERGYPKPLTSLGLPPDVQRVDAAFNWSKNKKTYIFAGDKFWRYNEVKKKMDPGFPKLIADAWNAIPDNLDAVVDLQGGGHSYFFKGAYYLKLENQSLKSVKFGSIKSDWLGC

In the case of `CC(C)(C)C(=O)Nc1nc2cc3c(cc2s1)OCO3`, the AC50 in assay [1] is 51.9 µM (active).

Consider `N#CC1=C(N)Oc2c(O)cc3ccccc3c2C1c1ccsc1` (stereo not given), for which the half-maximal cytotoxic concentration (CC50) in assay [2] was > 40 µM (active). In addition, the IC50 in assay [3] was > 79 µM (inactive); in assay [5], 155 µM (inactive); in assay [6], > 67.5 µM (inactive); in [7], > 80 µM (inactive). Further, in assay [4], the half-maximal effective concentration (EC50) is 41.5 µM (active).

On to `C/C(C/C(C)=C1/SC(=S)NC1=O)=C1\SC(=S)NC1=O`, for which the IC50 was 87.5 µM (active) in assay [8], 43.6 µM (active) in assay [9] and 302 nM (active) in assay [12]. Moreover, the results for the AC50 in assay [10] and in assay [11] were > 52 µM (inactive) and 7.93 µM (active), respectively.

As to `CC1(C)CC(=O)c2c(O)cc(OCc3ccc(Br)cc3)cc2O1`, the concentration at half-maximal activity (AC50) in [1] is 70.4 µM (active).

Turning to `CSc1nc(N)n2nc(-c3ccc(Cl)cc3)cc2n1`, the AC50 in [1] is 71.6 µM (active). Also, the EC50 is 3.88 µM (active) in assay [13] and 464 nM (active) in [14].

Turning to `Cc1ccc(SC2=C(N(C)C)C(=O)c3ccccc3C2=O)cc1`, the IC50 in assay [15] was 8.5 µM (active); in [16], 65 µM (active); in [17], 6.72 µM (active). The 50% cytotoxic concentration (CC50) in assay [2] is 22.1 µM (active).

As to `CC(C)NC(=S)c1cn(CCOc2ccccc2)c2ccccc12`, the IC50 in assay [18], in assay [19], in assay [20] and in assay [21] was > 100 µM (inactive) in each case.

Consider `Cc1cc(C)c(C)c(S(=O)(=O)Nc2cccc(S(=O)(=O)Nc3ccccc3C(=O)O)c2)c1C`, for which the AC50 in assay [10] is > 52 µM (inactive).
